Source: US7250442B2, “Dihydroindol-2-one derivatives as steroid hormone nuclear receptor modulators” (Eli Lilly and Company, priority 2003, dated 2007)
pKi: −log10 of the molar value.

Each compound was assayed against T1, glucocorticoid receptor (Homo sapiens, UniProt P04150) (assay: Glucocorticoid Receptor Binding Assay ([3H]-dexamethasone displacement, A549 cell extract)). Details: A549 human lung epithelial cell extract, 1.86 nM [3H]-dexamethasone; read-out: GR Ki.
T1 construct: host or cells: A549 human lung epithelial cells (sonicated cell extract)
T1 sequence (P04150 1-777): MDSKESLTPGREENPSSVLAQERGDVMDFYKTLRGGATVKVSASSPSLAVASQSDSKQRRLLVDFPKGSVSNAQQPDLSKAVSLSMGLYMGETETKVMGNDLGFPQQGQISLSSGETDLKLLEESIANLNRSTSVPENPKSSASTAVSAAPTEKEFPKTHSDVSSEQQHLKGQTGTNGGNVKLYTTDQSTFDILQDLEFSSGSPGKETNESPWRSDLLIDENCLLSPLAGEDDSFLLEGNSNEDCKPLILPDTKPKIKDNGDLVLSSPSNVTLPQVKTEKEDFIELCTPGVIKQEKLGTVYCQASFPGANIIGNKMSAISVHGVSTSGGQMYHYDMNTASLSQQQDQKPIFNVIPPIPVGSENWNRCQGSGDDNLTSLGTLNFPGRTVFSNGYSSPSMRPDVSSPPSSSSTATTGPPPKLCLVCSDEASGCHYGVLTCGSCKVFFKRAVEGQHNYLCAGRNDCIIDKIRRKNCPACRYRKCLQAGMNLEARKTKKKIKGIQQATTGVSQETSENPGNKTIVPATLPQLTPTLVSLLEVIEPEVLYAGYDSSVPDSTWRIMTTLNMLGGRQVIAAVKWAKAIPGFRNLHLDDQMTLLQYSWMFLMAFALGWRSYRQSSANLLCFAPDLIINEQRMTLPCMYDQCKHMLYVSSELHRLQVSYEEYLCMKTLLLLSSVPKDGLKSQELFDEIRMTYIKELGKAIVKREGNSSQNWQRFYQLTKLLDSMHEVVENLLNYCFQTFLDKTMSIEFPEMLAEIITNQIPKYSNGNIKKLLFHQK
Procedure: Glucocorticoid Receptor Binding Assay:
A549 human lung epithelial cells (ATCC) are grown at a scale where gram quantity cell pellets are obtained. Harvested cell pellets are washed twice in cold phosphate buffered saline, centrifuged, and resuspended in cold assay binding buffer. The assay binding buffer consists of 10% glycerol, 50 mM Tris-HCl (pH7.2), 75 mM sodium chloride, 1.5 mM magnesium chloride, 1.5 mM EDTA, and 10 mM sodium molybdate. Cell suspensions were lysed via sonication, centrifuged, and the “extract” supernatant is snap frozen and stored at −80C. until needed.
GR binding assays are performed in a final volume of 140 ul containing 50-200 ug of A549 cell extract and 1.86 nM [^3H]-dexamethasone (Amersham) plus varying concentrations of test compound or vehicle. Briefly, assays are prepared at RT in 96-well Fisher 3356 plates, each well containing 100 ul of A549 cell extract, 20 ul of [^3H]-dexamethasone, and 20 ul of test compound/vehicle. Incubations are carried out at 4 degrees celsius for 16 hours. After incubation, 70 ul of 3× dextran-coated charcoal solution is added to each reaction, mixed, and incubated for 8 minutes at RT. 3×-dextran-coated charcoal solution consists of 250 ml assay binding buffer, 3.75 g Norit A charcoal (Sigma), and 1.25 g dextran T-70 (Amersham). Charcoal/unbound radioligand complexes are removed by centrifugation of the plate and 140 ul of supernatant from each well is transferred to another 96 well Optiplate (Packard Instruments). 200 ul of Microscint-20 scinillant (Packard Instruments) is added to each well and amount of receptor bound radioligand is determined using Packard Instruments TopCount instrument.
IC50 values, defined as the concentration of test compound required to decrease [^3H]-dexamethasone binding by 50%, are then determined. Ki values for each respective test compound can then be calculated by application of the Cheng-Prusoff equation as described in Cheng et al., Relationship Between The Inhibition Constant (Ki) and The Concentration of Inhibitor Which Causes 50% Inhibition (IC50) of an Enzymatic Reaction, Biochem. Pharmacol., 22: 3099-31088; (1973).

Compound	pKi
Cc1cc(C2(c3cc(C)c(O)c(C)c3)C(=O)N(Cc3ccccc3Cl)c3ccccc32)cc(C)c1O [Example 11, 1-(2-Chloro-benzyl)-3,3-bis-(4-hydroxy-3,5-dimethyl-phenyl)-1,3-dihydro-indol-2-one]	≥ 6.30
CCOc1cccc(N2C(=O)C(c3cc(C)c(O)c(C)c3)(c3cc(C)c(O)c(C)c3)c3ccccc32)c1 [Example 137, 1-(3-Ethoxy-phenyl)-3,3-bis-(4-hydroxy-3,5-dimethyl-phenyl)-1,3-dihydro-indol-2-one]	≥ 6.30
Cc1cc(C2(c3cc(C)c(O)c(C)c3)C(=O)N(Cc3ccccc3F)c3ccccc32)cc(C)c1O [Example 50, 1-(2-Fluoro-benzyl)-3,3-bis-(4-hydroxy-3,5-dimethyl-phenyl)-1,3-dihydro-indol-2-one]	≥ 6.30
Cc1ccc(N2C(=O)C(c3cc(C)c(O)c(C)c3)(c3cc(C)c(O)c(C)c3)c3ccccc32)cc1 [Example 125, 3,3-Bis-(4-hydroxy-3,5-dimethyl-phenyl)-1-p-tolyl-1,3-dihydro-indol-2-one]	≥ 6.30
Cc1cc(C2(c3cc(C)c(O)c(C)c3)C(=O)N(Cc3c(F)cccc3F)c3ccccc32)cc(C)c1O [Example 115, 1-(2,6-Difluoro-benzyl)-3,3-bis-(4-hydroxy-3,5-dimethyl-phenyl)-1,3-dihydro-indol-2-one]	≥ 6.30
Cc1cc(C2(c3cc(C)c(O)c(C)c3)C(=O)N(Cc3ccccc3)c3ccc(Br)cc32)cc(C)c1O [Example 15, 1-Benzyl-5-bromo-3,3-bis-(4-hydroxy-3,5-dimethyl-phenyl)-1,3-dihydro-indol-2-one]	≥ 6.00
Cc1cc(C2(c3cc(C)c(O)c(C)c3)C(=O)N(Cc3ccc4ccccc4n3)c3ccccc32)cc(C)c1O [Example 97, 3,3-Bis-(4-hydroxy-3,5-dimethyl-phenyl)-1-quinolin-2-ylmethyl-1,3-dihydro-indol-2-one]	≥ 6.30
Cc1cc(C2(c3cc(C)c(O)c(C)c3)C(=O)N(C)c3ccccc32)cc(C)c1O [Example 4, 3,3-Bis-(4-hydroxy-3,5-dimethyl-phenyl)-1-methyl-1,3-dihydro-indol-2-one]	≥ 6.30
O=C1N(Cc2ccccc2)c2ccccc2C1(c1cc(Cl)c(O)c(Cl)c1)c1cc(Cl)c(O)c(Cl)c1 [Example 14, 1-Benzyl-3,3-bis-(3,5-dichloro-4-hydroxy-phenyl)-1,3-dihydro-indol-2-one]	≥ 6.30
CCc1nc(CN2C(=O)C(c3cc(C)c(O)c(C)c3)(c3cc(C)c(O)c(C)c3)c3ccccc32)cs1 [Example 90, 1-(2-Ethyl-thiazol-4-ylmethyl)-3,3-bis-(4-hydroxy-3,5-dimethyl-phenyl)-1,3-dihydro-indol-2-one]	≥ 6.00
Cc1cc(C2(c3cc(C)c(O)c(C)c3)C(=O)N(Cc3ccccc3-c3ccccc3)c3ccccc32)cc(C)c1O [Example 54, 1-Biphenyl-2-ylmethyl-3,3-bis-(4-hydroxy-3,5-dimethyl-phenyl)-1,3-dihydro-indol-2-one]	≥ 6.00
COc1cccc(CN2C(=O)C(c3cc(C)c(O)c(C)c3)(c3cc(C)c(O)c(C)c3)c3ccccc32)c1 [Example 56, 3,3-Bis-(4-hydroxy-3,5-dimethyl-phenyl)-1-(3-methoxy-benzyl)-1,3-dihydro-indol-2-one]	≥ 6.30
Cc1cc(C2(c3cc(C)c(O)c(C)c3)C(=O)N(Cc3c(C)noc3C)c3ccccc32)cc(C)c1O [Example 9, 1-(3,5-Dimethyl-isoxazol-4-ylmethyl)-3,3-bis-(4-hydroxy-3,5-dimethyl-phenyl)-1,3-dihydro-indol-2-one]	≥ 6.30
Cc1cc(C2(c3cc(C)c(O)c(C)c3)C(=O)N(Cc3ccncc3)c3ccccc32)cc(C)c1O [Example 111, 3,3-Bis-(4-hydroxy-3,5-dimethyl-phenyl)-1-pyridin-4-ylmethyl-1,3-dihydro-indol-2-one]	≥ 6.30
Cc1cc(C2(c3cc(C)c(O)c(C)c3)C(=O)N(Cc3ccccc3Br)c3ccccc32)cc(C)c1O [Example 63, 1-(2-Bromo-benzyl)-3,3-bis-(4-hydroxy-3,5-dimethyl-phenyl)-1,3-dihydro-indol-2-one]	≥ 6.30
Cc1ccc2c(c1)C(c1cc(C)c(O)c(C)c1)(c1cc(C)c(O)c(C)c1)C(=O)N2Cc1csc(-c2ccccc2)n1 [Example 92, 3,3-Bis-(4-hydroxy-3,5-dimethyl-phenyl)-5-methyl-1-(2-phenyl-thiazol-4-ylmethyl)-1,3-dihydro-indol-2-one]	≥ 6.30
Cc1cc(C2(c3ccc(O)c(C)c3)C(=O)N(Cc3ccccc3)c3ccccc32)ccc1O [Example 12, 1-Benzyl-3,3-bis-(4-hydroxy-3-methyl-phenyl)-1,3-dihydro-indol-2-one]	≥ 6.30
Cc1cc(C2(c3cc(C)c(O)c(C)c3)C(=O)N(c3cccc(C(C)C)c3)c3ccccc32)cc(C)c1O [Example 138, 3,3-Bis-(4-hydroxy-3,5-dimethyl-phenyl)-1-(3-isopropyl-phenyl)-1,3-dihydro-indol-2-one]	≥ 6.30
COc1ccc(-c2nc(CN3C(=O)C(c4cc(C)c(O)c(C)c4)(c4cc(C)c(O)c(C)c4)c4ccccc43)no2)cc1 [Example 99, 3,3-Bis-(4-hydroxy-3,5-dimethyl-phenyl)-1-[5-(4-methoxy-phenyl)-[1,2,4]oxadiazol-3-ylmethyl]-1,3-dihydro-indol-2-one]	≥ 6.00
Cc1ccc2c(c1)C(c1cc(C)c(O)c(C)c1)(c1cc(C)c(O)c(C)c1)C(=O)N2Cc1ccccc1Cl [Example 22, 1-(2-Chloro-benzyl)-3,3-bis-(4-hydroxy-3,5-dimethyl-phenyl)-5-methyl-1,3-dihydro-indol-2-one]	≥ 6.30
CC(C)=CCN1C(=O)C(c2cc(C)c(O)c(C)c2)(c2cc(C)c(O)c(C)c2)c2ccccc21 [Example 102, 3,3-Bis-(4-hydroxy-3,5-dimethyl-phenyl)-1-(3-methyl-but-2-enyl)-1,3-dihydro-indol-2-one]	≥ 6.30
Cc1cc(C2(c3cc(C)c(O)c(C)c3)C(=O)N(Cc3ccc([N+](=O)[O-])o3)c3ccccc32)cc(C)c1O [Example 73, 3,3-Bis-(4-hydroxy-3,5-dimethyl-phenyl)-1-(5-nitro-furan-2-ylmethyl)-1,3-dihydro-indol-2-one]	≥ 6.30
CCc1cccc2c1N(Cc1ccccc1Cl)C(=O)C2(c1cc(C)c(O)c(C)c1)c1cc(C)c(O)c(C)c1 [Example 25, 1-(2-Chloro-benzyl)-7-ethyl-3,3-bis-(4-hydroxy-3,5-dimethyl-phenyl)-1,3-dihydro-indol-2-one]	≥ 6.00
C#CCN1C(=O)C(c2cc(C)c(O)c(C)c2)(c2cc(C)c(O)c(C)c2)c2ccccc21 [Example 101, 3,3-Bis-(4-hydroxy-3,5-dimethyl-phenyl)-1-prop-2-ynyl-1,3-dihydro-indol-2-one]	≥ 6.30
Cc1cc(C2(c3cc(C)c(O)c(C)c3)C(=O)N(c3cccc(F)c3)c3ccccc32)cc(C)c1O [Example 130, 1-(3-Fluoro-phenyl)-3,3-bis-(4-hydroxy-3,5-dimethyl-phenyl)-1,3-dihydro-indol-2-one]	≥ 6.30
COC(=O)c1cccc(-c2noc(CN3C(=O)C(c4cc(C)c(O)c(C)c4)(c4cc(C)c(O)c(C)c4)c4ccccc43)n2)c1 [Example 141, 3-{5-[3,3-Bis-(4-hydroxy-3,5-dimethyl-phenyl)-2-oxo-2,3-dihydro-indol-1-ylmethyl]-[1,2,4]oxadiazol-3-yl}-benzoic acid methyl ester]	≥ 6.30
COc1ccc(CN2C(=O)C(c3cc(C)c(O)c(C)c3)(c3cc(C)c(O)c(C)c3)c3ccccc32)cc1 [Example 1, 3,3-Bis-(4-hydroxy-3,5-dimethyl-phenyl)-1-(4-methoxy-benzyl)-1,3-dihydro-indol-2-one]	≥ 6.30
